In patent US9795140B2, “Molecules having pesticidal utility, and intermediates, compositions, and processes, related thereto” (priority 2015, dated 2017):

Assays:
Type in all cases: in vivo
[1] = test system: Beet Armyworm (Spodoptera exigua, LAPHEG); test: Bioassay on Beet Armyworm (BAW), 128-well diet tray assay; details: 168 h, 50 μg/cm^2 on artificial diet, second instar larvae, 25° C., five to seven days, average of eight wells, read-out: BAW % Control (or Mortality) rating
Procedure: (§1) Certain molecules disclosed in this document were tested against BAW and CL using procedures described in the following examples. In the reporting of the results, the “BAW & CL Rating Table” was used (See Table Section).
Bioassays on BAW were conducted using a 128-well diet tray assay. One to five second instar BAW larvae were placed in each well (3 mL) of the diet tray that had been previously filled with approximately 1.5 mL of artificial diet to which 50 μg/cm^2 of the test molecule (dissolved in 50 μL of 90:10 acetone-water mixture) had been applied (to each of eight wells) and then allowed to dry. Trays were covered with a clear self-adhesive cover, vented to allow gas exchange, and held at 25° C., 14:10 light-dark for five to seven days. Percent mortality was recorded for the larvae in each well; activity in the eight wells was then averaged. The results are indicated in the table entitled “Table ABC: Biological Results” (See Table Section).

[2] = test system: Cabbage Looper (Trichoplusia ni, TRIPNI); test: Bioassay on Cabbage Looper (CL), 128-well diet tray assay; details: 168 h, 50 μg/cm^2 on artificial diet, second instar larvae, 25° C., five to seven days, average of eight wells, read-out: CL % Control (or Mortality) rating
Procedure: as §1
Bioassays on CL were conducted using a 128-well diet tray assay, one to five second instar CL larvae were placed in each well (3 mL) of the diet tray that had been previously filled with 1 mL of artificial diet to which 50 μg/cm^2 of the test molecule (dissolved in 50 μL of 90:10 acetone-water mixture) had been applied (to each of eight wells) and then allowed to dry. Trays were covered with a clear self-adhesive cover, vented to allow gas exchange, and held at 25° C., 14:10 light-dark for five to seven days. Percent mortality was recorded for the larvae in each well; activity in the eight wells was then averaged. The results are indicated in the table entitled “Table ABC: Biological Results” (See Table Section).

[3] = test system: Yellow Fever Mosquito (Aedes aegypti, AEDSAE); test: Bioassay on Yellow Fever Mosquito (YFM) larvae, 96-well plate; details: about 1 day-old larvae, room temperature, 3 days, scored on mortality
Procedure: Certain molecules disclosed in this document were tested against YFM using procedures described in the following paragraph. In the reporting of the results, the “GPA & YFM Rating Table” was used (See Table Section).
Master plates containing 400 μg of a molecule dissolved in 100 μL of dimethyl sulfoxide (DMSO) (equivalent to a 4000 ppm solution) are used. A master plate of assembled molecules contains 15 μL per well. To this plate, 135 μL of a 90:10 water/acetone mixture is added to each well. A robot is programmed to dispense 15 μL aspirations from the master plate into an empty 96-well shallow plate (“daughter” plate). There are 6 reps (“daughter” plates) created per master. The created “daughter” plates are then immediately infested with YFM larvae.
The day before plates are to be treated, mosquito eggs are placed in Millipore water containing liver powder to begin hatching (4 g. into 400 mL). After the “daughter” plates are created using the robot, they are infested with 220 μL of the liver powder/larval mosquito mixture (about 1 day-old larvae). After plates are infested with mosquito larvae, a non-evaporative lid is used to cover the plate to reduce drying. Plates are held at room temperature for 3 days prior to grading. After 3 days, each well is observed and scored based on mortality. The results are indicated in the table entitled “Table ABC: Biological Results” (See Table Section).

With `O=C(NCc1ccc(-n2cncn2)cc1)c1cc(NC(=O)[C@H]2[C@H](c3cc(Cl)cc(Cl)c3)C2(Cl)Cl)ccc1Cl` (relative stereo) [PF11, trans-N-(4-(1H-1,2,4-Triazol-1-yl)benzyl)-2-chloro-5-(2,2-dichloro-3-(3,5-dichlorophenyl)cyclopropane-1-carboxamido)benzamide] the mortality at 50 µg/cm2 [1] was 50 to 100%, the mortality at 50 µg/cm2 [2] was 50 to 100% and the “YFM % Control (or Mortality) rating” value [3] was “A (80-100)”.

`O=C(NCCC(F)(F)F)c1cc(NC(=O)[C@H]2[C@H](c3ccc(F)c(Cl)c3)C2(Cl)Cl)ccc1Cl` (relative stereo) [F107, trans-2-Chloro-5-(2,2-dichloro-3-(3-chloro-4-fluorophenyl)cyclopropane-1-carboxamido)-N-(3,3,3-trifluoropropyl)benzamide] was tested, and the mortality at 50 µg/cm2 [1] was 50 to 100%, the mortality at 50 µg/cm2 [2] was 50 to 100% and the “YFM % Control (or Mortality) rating” value [3] was “B (More than 0-Less than 80)”.

In the case of `COc1c(F)cc(C2C(C(=O)Nc3ccc(Cl)c(C(=O)NCC(F)(F)F)c3)C2(Cl)Cl)cc1F` (stereo not drawn) [F125, 2-Chloro-5-trans-(2,2-dichloro-3-(3,5-difluoro-4-methoxyphenyl)cyclopropane-1-carboxamido)-N-(2,2,2-trifluoroethyl)benzamide], the mortality at 50 µg/cm2 [1] is reported as 50 to 100%, the mortality at 50 µg/cm2 [2] is reported as 50 to 100% and the “YFM % Control (or Mortality) rating” value [3] is reported as “A (80-100)”.

In the case of `CSCCNC(=O)c1cc(NC(=O)[C@H]2[C@H](c3cc(Cl)cc(Cl)c3)C2(Cl)Cl)ccc1Cl` (relative stereo) [F52, trans-2-Chloro-5-(2,2-dichloro-3-(3,5-dichlorophenyl)cyclopropane-1-carboxamido)-N-(2-(methylthio)ethyl)benzamide], the mortality at 50 µg/cm2 [1] is reported as 50 to 100%, the mortality at 50 µg/cm2 [2] is reported as 50 to 100% and the “YFM % Control (or Mortality) rating” value [3] is reported as “B (More than 0-Less than 80)”.

With `O=C(NCC(F)(F)F)c1cc(NC(=O)[C@H]2[C@H](c3ccc(F)c(C(F)F)c3)C2(Cl)Cl)ccc1Cl` (relative stereo) [F131, 2-Chloro-5-(trans-2,2-dichloro-3-(3-(difluoromethyl)-4-fluorophenyl)cyclopropane-1-carboxamido)-N-(2,2,2-trifluoroethyl)benzamide] the mortality at 50 µg/cm2 [1] was 50 to 100%, the mortality at 50 µg/cm2 [2] was 50 to 100% and the “YFM % Control (or Mortality) rating” value [3] was “A (80-100)”.

For `O=C(NCC(F)(F)F)c1cccc(NC(=O)[C@H]2[C@H](c3cc(Cl)cc(Cl)c3)C2(Cl)Cl)c1` (relative stereo) [F3, trans-3-(2,2-Dichloro-3-(3,5-dichlorophenyl)cyclopropane-1-carboxamido)-N-(2,2,2-trifluoroethyl)benzamide], the mortality at 50 µg/cm2 [1] was 50 to 100%, the mortality at 50 µg/cm2 [2] was 50 to 100% and the “YFM % Control (or Mortality) rating” value [3] was “A (80-100)”.

For `O=C(NCC(F)(F)F)c1cc(NC(=O)[C@H]2[C@H](c3ccc(C(F)(F)F)c(Br)c3)C2(Cl)Cl)ccc1Cl` (relative stereo) [F114, 5-(trans-3-(3-Bromo-4-(trifluoromethyl)phenyl)-2,2-dichlorocyclopropane-1-carboxamido)-2-chloro-N-(2,2,2-trifluoroethyl)benzamide], the mortality at 50 µg/cm2 [1] was 50 to 100%, the mortality at 50 µg/cm2 [2] was 50 to 100% and the “YFM % Control (or Mortality) rating” value [3] was “A (80-100)”.

For `O=C(NCC(F)(F)F)c1cc(NC(=O)[C@H]2[C@H](c3ccc(C(F)F)c(F)c3)C2(Cl)Cl)ccc1Cl` (relative stereo) [F133, 2-Chloro-5-(trans-2,2-dichloro-3-(4-(difluoromethyl)-3-fluorophenyl)cyclopropane-1-carboxamido)-N-(2,2,2-trifluoroethyl)benzamide], the mortality at 50 µg/cm2 [1] was 50 to 100%, the mortality at 50 µg/cm2 [2] was 50 to 100% and the “YFM % Control (or Mortality) rating” value [3] was “A (80-100)”.

In the case of `CCNC(=O)c1cc(NC(=O)[C@H]2[C@H](c3cc(Cl)cc(Cl)c3)C2(Cl)Cl)cc(Cl)c1Cl` (relative stereo) [F91, trans-2,3-Dichloro-5-(2,2-dichloro-3-(3,5-dichlorophenyl)cyclopropane-1-carboxamido)-N-ethylbenzamide], the mortality at 50 µg/cm2 [1] is reported as 50 to 100%, the mortality at 50 µg/cm2 [2] is reported as 50 to 100% and the “YFM % Control (or Mortality) rating” value [3] is reported as “A (80-100)”.

In the case of `O=C(NCC(F)(F)F)c1cc(NC(=O)[C@H]2[C@H](c3ccc(Br)c(C(F)(F)F)c3)C2(Cl)Cl)ccc1Cl` (relative stereo) [F115, 5-(trans-3-(4-Bromo-3-(trifluoromethyl)phenyl)-2,2-dichlorocyclopropane-1-carboxamido)-2-chloro-N-(2,2,2-trifluoroethyl)benzamide], the mortality at 50 µg/cm2 [1] is reported as 50 to 100%, the mortality at 50 µg/cm2 [2] is reported as 50 to 100% and the “YFM % Control (or Mortality) rating” value [3] is reported as “A (80-100)”.

`CCCNC(=O)c1cc(NC(=O)[C@H]2[C@H](c3ccc(F)c(Cl)c3)C2(Cl)Cl)ccc1Cl` (relative stereo) [F106, trans-2-Chloro-5-(2,2-dichloro-3-(3-chloro-4-fluorophenyl)cyclopropane-1-carboxamido)-N-propylbenzamide] was tested, and the mortality at 50 µg/cm2 [1] was 50 to 100%, the mortality at 50 µg/cm2 [2] was 50 to 100% and the “YFM % Control (or Mortality) rating” value [3] was “A (80-100)”.

`O=C(NCC(F)(F)F)c1cc(NC(=O)[C@H]2[C@H](c3ccc(Cl)c(C(F)F)c3)C2(Cl)Cl)ccc1Cl` (relative stereo) [F129, 2-Chloro-5-(trans-2,2-dichloro-3-(4-chloro-3-(difluoromethyl)phenyl)cyclopropane-1-carboxamido)-N-(2,2,2-trifluoroethyl)benzamide] was tested, and the mortality at 50 µg/cm2 [1] was 50 to 100%, the mortality at 50 µg/cm2 [2] was 50 to 100% and the “YFM % Control (or Mortality) rating” value [3] was “A (80-100)”.

With `CC(O)CNC(=O)c1cc(NC(=O)[C@H]2[C@H](c3cc(Cl)cc(Cl)c3)C2(Cl)Cl)ccc1Cl` (relative stereo) [F78, trans-2-Chloro-5-(2,2-dichloro-3-(3,5-dichlorophenyl)cyclopropane-1-carboxamido)-N-(2-hydroxypropyl)benzamide] the mortality at 50 µg/cm2 [1] was 50 to 100%, the mortality at 50 µg/cm2 [2] was 50 to 100% and the “YFM % Control (or Mortality) rating” value [3] was “A (80-100)”.

`COc1c(Cl)cc([C@H]2[C@H](C(=O)Nc3ccc(Cl)c(C(=O)NCCC(F)(F)F)c3)C2(Cl)Cl)cc1Cl` (relative stereo) [F88, trans-2-Chloro-5-(2,2-dichloro-3-(3,5-dichloro-4-methoxyphenyl)cyclopropane-1-carboxamido)-N-(3,3,3-trifluoropropyl)benzamide] was tested, and the mortality at 50 µg/cm2 [1] was 50 to 100%, the mortality at 50 µg/cm2 [2] was 50 to 100% and the “YFM % Control (or Mortality) rating” value [3] was “B (More than 0-Less than 80)”.

`O=C(NCCC1CC1)c1cc(NC(=O)C2C(c3cc(Cl)c(Cl)c(Cl)c3)C2(Cl)Cl)ccc1Cl` (stereo not drawn) [F26, trans-N-2-Chloro-N-(2-cyclopropylethyl)-5-(2,2-dichloro-3-(3,4,5-trichlorophenyl)cyclopropane-1-carboxamido)benzamide] was tested, and the mortality at 50 µg/cm2 [1] was 50 to 100%, the mortality at 50 µg/cm2 [2] was 50 to 100% and the “YFM % Control (or Mortality) rating” value [3] was “A (80-100)”.

`C[C@H](CS(=O)(=O)CCC(F)(F)F)NC(=O)c1cc(NC(=O)C2C(c3cc(Cl)cc(Cl)c3)C2(Cl)Cl)ccc1Cl` (stereo in doubt) [PF4, trans-2-Chloro-5-(2,2-dichloro-3-(3,5-dichlorophenyl)cyclopropane-1-carboxamido)-N—((R)-1-((3,3,3-trifluoropropyl)sulfonyl)propan-2-yl)benzamide] was tested, and the mortality at 50 µg/cm2 [1] was 50 to 100%, the mortality at 50 µg/cm2 [2] was 50 to 100% and the “YFM % Control (or Mortality) rating” value [3] was “A (80-100)”.

For `CCN(C)C(=O)c1cc(NC(=O)[C@H]2[C@H](c3cc(Cl)cc(Cl)c3)C2(Cl)Cl)ccc1Cl` (relative stereo) [F63, trans-2-Chloro-5-(2,2-dichloro-3-(3,5-dichlorophenyl)cyclopropane-1-carboxamido)-N-ethyl-N-methylbenzamide], the mortality at 50 µg/cm2 [1] was 50 to 100%, the mortality at 50 µg/cm2 [2] was 50 to 100% and the “YFM % Control (or Mortality) rating” value [3] was “D (No activity noticed in this bioassay)”.
